Data reported in patent publication US7501440B2, “Substituted benzoylureidopyridylpiperidine-and-pyrrolidinecarboxylic acid derivatives, processes for preparing them and their use” (Sanofi-Aventis Deutschland GmbH, priority 2003, dated 2009).

Target: T1, human glycogen phosphorylase a (Homo sapiens, UniProt P06737)
T1 sequence (P06737 1-847): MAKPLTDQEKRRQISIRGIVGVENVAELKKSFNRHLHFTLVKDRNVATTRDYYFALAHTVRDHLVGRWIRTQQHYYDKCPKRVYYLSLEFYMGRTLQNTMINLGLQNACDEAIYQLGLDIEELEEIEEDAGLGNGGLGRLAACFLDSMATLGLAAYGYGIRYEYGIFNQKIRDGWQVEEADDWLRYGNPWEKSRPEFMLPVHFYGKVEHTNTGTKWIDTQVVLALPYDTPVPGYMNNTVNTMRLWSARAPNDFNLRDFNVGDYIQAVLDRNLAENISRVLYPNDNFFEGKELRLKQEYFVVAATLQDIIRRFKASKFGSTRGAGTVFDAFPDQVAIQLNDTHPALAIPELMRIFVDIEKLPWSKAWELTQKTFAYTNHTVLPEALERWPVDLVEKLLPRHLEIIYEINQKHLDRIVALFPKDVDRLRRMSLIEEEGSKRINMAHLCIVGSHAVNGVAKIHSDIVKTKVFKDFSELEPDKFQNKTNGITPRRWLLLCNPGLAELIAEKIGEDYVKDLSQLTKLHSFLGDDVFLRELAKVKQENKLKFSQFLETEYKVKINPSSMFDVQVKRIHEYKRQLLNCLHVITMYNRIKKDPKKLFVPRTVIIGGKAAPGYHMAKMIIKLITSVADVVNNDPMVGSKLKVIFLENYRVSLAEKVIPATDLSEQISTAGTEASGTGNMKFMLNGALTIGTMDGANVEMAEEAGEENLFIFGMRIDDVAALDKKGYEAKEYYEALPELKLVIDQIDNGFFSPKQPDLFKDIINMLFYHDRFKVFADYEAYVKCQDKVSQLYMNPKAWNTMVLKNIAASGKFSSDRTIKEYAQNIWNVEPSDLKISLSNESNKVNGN
Assay: Glycogen phosphorylase a activity test
Format: biochemical
Conditions: inhibition of GPa in vitro, reverse direction (glycogen synthesis from glucose 1-phosphate, release of inorganic phosphate)
Procedure: Glycogen Phosphorylase a Activity Test
The effect of compounds on the activity of the active form of glycogen phosphorylase (GPa) was measured in the reverse direction by monitoring the synthesis of glycogen from glucose 1-phosphate by determining the release of inorganic phosphate. All reactions were carried out as duplicate determinations in 96-well microtiter plates (half area plates, Costar No. 3696), and the change in absorption as a consequence of the formation of the reaction product was measured at the wavelength specified below in a Multiskan Ascent Elisa Reader (Lab Systems, Finland). In order to measure the GPa enzyme activity in the reverse direction, the conversion of glucose 1-phosphate to glycogen and inorganic phosphate was measured by the general method of Engers et al. (Engers H D, Shechosky S, Madsen N B, Can J Biochem 1970 July; 48(7):746-754) with the following modifications: human glycogen phosphorylase a (for example containing 0.76 mg of protein/ml (Aventis Pharma Deutschland GmbH), dissolved in buffer solution E (25 mM β-glycerophosphate, pH 7.0, 1 mM EDTA and 1 mM dithiothreitol) was diluted to a concentration of 10 μg of protein/ml with buffer T (50 mM Hepes, pH 7.0, 100 mM KCI, 2.5 mM EDTA, 2.5 mM MgCl2·6H2O) and addition of 5 mg/ml of glycogen. Test substances were prepared as a 10 mM solution in DMSO and diluted to 50 μM with buffer solution T. To 10 μl of this solution were added 10 μl of 37.5 mM glucose dissolved in buffer solution T and 5 mg/ml of glycogen, and also 10 μl of a solution of human glycogen phosphorylase a (10 μg of protein/ml) and 20 μl of 2.5 mM glucose 1-phosphate. The base value of the activity of glycogen phosphorylase a in the absence of test substance was determined by adding 10 μl of buffer solution T (0.1% DMSO). The mixture was incubated at room temperature for 40 minutes and the released inorganic phosphate was determined by means of the general method of Drueckes et al. (Drueckes P, Schinzel R, Palm D, Anal Biochem 1995 September 1;230(1):173-177) with the following modifications: 50 μl of a stop solution of 7.3 mM of ammonium molybdate, 10.9 mM of zinc acetate, 3.6% of ascorbic acid, 0.9% of SDS are added to 50 μl of the enzyme mixture. After 60 minutes of incubation at 45° C., the absorption was measured at 820 nm. To determine the background absorption, the stop solution was added immediately after the addition of the glucose 1-phosphate solution in a separate reaction. […]

Q: For `O=C(NC(=O)c1ccc(F)cc1Cl)Nc1cccnc1N1CCC(C(=O)O)CC1` [Example 1, 3′-[3-(2-Chloro-4-fluorobenzoyl)ureido]-3,4,5,6-tetrahydro-2H-[1,2′]bipyridinyl-4-carboxylic acid], which IC50 is on record?
A: 40 nM

Q: Which IC50 does the source give for `O=C(NC(=O)c1cc(F)c(F)cc1Cl)Nc1cccnc1N1CCC(C(=O)O)CC1` [Example 2, 3+-[3-(2-Chloro-4,5-difluorobenzoyl)ureido]-3,4,5,6-tetrahydro-2H-[1,2′]bipyridinyl-4-carboxylic acid] here?
A: 10 nM

Q: With `NC(=O)C1CCN(c2ncccc2NC(=O)NC(=O)c2cc(F)c(F)cc2Cl)CC1` [Example 4, 3′-[3-(2-Chloro-4,5-difluorobenzoyl)ureido]-3,4,5,6-tetrahydro-2H-[1,2′]bipyridinyl-4-carboxamide] as the molecule, how does the IC50 read?
A: 160 nM

Q: Which IC50 does the source give for `O=C(NC(=O)c1cc(F)c(F)cc1Cl)Nc1cccnc1N1CCC(C(=O)NCCO)CC1` [Example 5, N-(2-hydroxyethyl)-3′-[3-(2-chloro-4,5-difluorobenzoyl)ureido]-3,4,5,6-tetrahydro-2H-[1,2′]bipyridinyl-4-carboxamide] here?
A: 3650 nM

System: not given
Assay: not given
Conditions: not given

Q: With `COC(=O)C1CCN(c2ncccc2NC(=O)NC(=O)c2cc(F)c(F)cc2Cl)CC1` [Example 3, Methyl 3′-[3-(2-chloro-4,5-difluorobenzoyl)ureido]-3,4,5,6-tetrahydro-2H-[1,2′]bipyridinyl-4-carboxylate] as the molecule, how does the melting point read?
A: 195.9 °C

Q: For `O=C(NC(=O)c1cc(F)c(F)cc1Cl)Nc1cccnc1N1CCC(C(=O)O)(c2ccccc2)CC1` [Example 6, 3′-[3-(2-Chloro-4,5-difluorobenzoyl)ureido]-4-phenyl-3,4,5,6-tetrahydro-2H-[1,2′]bipyridinyl-4-carboxylic acid], which melting point is on record?
A: 250.9 °C
